Measurements reported in patent US20140309171A1, “MARKER FOR BLOOD COAGULATION” (Universite Catholique De Louvain, priority 2011, published 2014).
Entries after “also recorded” stand apart in the source; their conditions may differ.

What was measured:
[1] = test system: AMPK Thr172 phosphorylation in human platelets; assay: Western blot of AMPK Thr172 phosphorylation in human platelets; format: cell-based; settings: 10 μM STO-609, thrombin-treated human platelets (not shown)
Description: Washed human platelets (used in in vitro studies). Platelets were obtained from adult healthy volunteers in accordance with the Ethics Commission of our institution (Commission d'Ethique Biomédicale Hospitalo-Facultaire, Université catholique de Louvain). Whole blood was collected with butterfly needle 21G into Sodium Citrate 1:10 solution (S-monovette). Platelet-rich plasma (PRP) was obtained by 15 min centrifugation at 330 g. The platelets pellet was then washed in Tyrode modified buffer (135 mM NaCl, 12 mM NaHCO3, 1 mM Sodium Citrate, 2.9 mM KCl, 0.3 mM Na2HPO4, 1 mM MgCl2, 5 mM D-glucose, 10 mM Hepes, 0.35% bovine serum albumin (BSA), pH 7.4 at 37° C.) and resuspended to a density of 2.5 10^5 platelets/μl for the measurement of intracellular Ca^2+ or platelet aggregation. For Western Blot analysis, PRP with eptifibatide 4 μg/ml (Integriline, GlaxoSmithKline) and ectonucleotidase apyrase (grade I) 0.5 U/ml was layered over a density barrier of iodixanol (Optiprep®) that allowed the erythrocytes and leucocytes to pellet during centrifugation at 350 g for 15 min. […] Bound antibodies were detected by enhanced chemiluminescence (Thermofisher). […] Band intensities were quantified by scanning and processing image intensities with the program ImageJ (1.33 for Mac OS X). The quantification of immunoblots presented in results was obtained after normalization using the internal loading control.

washed human platelets = assay: Platelet aggregation, light transmission (Chrono-Log Aggregometer); format: cell-based
Description: Washed human platelets (used in in vitro studies). Platelets were obtained from adult healthy volunteers in accordance with the Ethics Commission of our institution (Commission d'Ethique Biomédicale Hospitalo-Facultaire, Université catholique de Louvain). Whole blood was collected with butterfly needle 21G into Sodium Citrate 1:10 solution (S-monovette). Platelet-rich plasma (PRP) was obtained by 15 min centrifugation at 330 g. The platelets pellet was then washed in Tyrode modified buffer (135 mM NaCl, 12 mM NaHCO3, 1 mM Sodium Citrate, 2.9 mM KCl, 0.3 mM Na2HPO4, 1 mM MgCl2, 5 mM D-glucose, 10 mM Hepes, 0.35% bovine serum albumin (BSA), pH 7.4 at 37° C.) and resuspended to a density of 2.5 10^5 platelets/μl for the measurement of intracellular Ca^2+ or platelet aggregation. For Western Blot analysis, PRP with eptifibatide 4 μg/ml (Integriline, GlaxoSmithKline) and ectonucleotidase apyrase (grade I) 0.5 U/ml was layered over a density barrier of iodixanol (Optiprep®) that allowed the erythrocytes and leucocytes to pellet during centrifugation at 350 g for 15 min. The platelets, because of their small size, sediment much more slowly. After centrifugation at 800 g for 10 min, the resulting pellet was resuspended to a density of 2·10^5 platelets/μl in Tyrode modified buffer before treatment and lysis of samples.
Light transmission during thrombin-induced platelet aggregation in human and murine PRP was recorded with a Chrono-Log Aggregometer at 37° C., under stirring condition (1200 crpm). The platelet suspension was incubated with dimethyl sulfoxide (DMSO, vehicle) or STO-609 (10 μM, Tocris) for 2 min before the addition of the thrombin (+/−0.03 U/ml). CaCl2 2 mM was added prior to the agonists.
To evaluate the potential implication of CaMKKβ in platelet aggregation, washed human platelets were pre-incubated for 2 min with 10 μM STO-609, prior to treatment with thrombin or ADP.

O=C(O)c1ccc2c3c1cccc3c(=O)n1c3ccccc3nc21 [STO-609]
AMPK activation, as judged by phosphorylation of AMPK Thr172 [1]: markedly reduced | platelet aggregation caused by ADP (effect in words) (washed human platelets; 20 μM ADP, 10 μM STO-609): not inhibited | thrombin-induced platelet aggregation, % of aggregation (washed human platelets; 0.025 U/ml thrombin + 10 μM STO-609, 2 min pre-incubation): 11±4% | thrombin-induced platelet aggregation (effect in words) (washed human platelets; 0.025 U/ml thrombin, 10 μM STO-609): significantly inhibited; also recorded: prevents
